According to patent US8158811B2, “Unsaturated fatty hydroxy acid derivatives and the dermocosmetologic use thereof” (Pierre Fabre Dermo-Cosmetique, priority 2005, dated 2012):

What was measured:
PAR-2 receptors = target: T1, PAR-2 receptors (Homo sapiens, UniProt P55085); test: calcium flux induced by trypsin stimulation of PAR-2 receptors in HaCaT keratinocytes (Fluo-4/AM); type: cell-based; conditions: trypsin 10 nM
T1 construct: PAR-2 receptors for trypsin present in human keratinocytes from the HaCaT line; endogenous in cells; host or cells: HaCaT human keratinocytes
T1 sequence (P55085 26-397): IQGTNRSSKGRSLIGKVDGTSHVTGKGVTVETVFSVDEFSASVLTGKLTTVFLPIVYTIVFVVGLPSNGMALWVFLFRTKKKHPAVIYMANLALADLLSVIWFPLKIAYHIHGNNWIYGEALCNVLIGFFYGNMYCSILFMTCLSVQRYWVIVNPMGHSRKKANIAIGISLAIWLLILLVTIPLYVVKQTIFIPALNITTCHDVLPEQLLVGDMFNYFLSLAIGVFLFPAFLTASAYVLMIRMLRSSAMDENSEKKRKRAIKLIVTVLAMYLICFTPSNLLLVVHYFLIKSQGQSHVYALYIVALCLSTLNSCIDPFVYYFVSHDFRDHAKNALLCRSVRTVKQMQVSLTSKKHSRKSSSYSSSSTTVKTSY
From the text: We therefore considered evaluating anti-PAR-2 activity of hydroxyl acid derivatives of formula I on the influx of intracellular calcium induced after specific stimulation by PAR-2 receptors for trypsin present in human keratinocytes from the HaCaT line.
This technique is based on the use of an esterified fluorescent probe by an AM group which facilitates its penetration by passive diffusion into the cell. The probe used is Fluo-4/AM. Only the de-esterified form bound to the calcium ion is excitable in fluorescence (at 485 nm) and emits at 535 nm.
In vitro, at the cell level, specific stimulation of the PAR-2 receptors by trypsin leads to mobilisation of intra and extracellular calcium detected with the aid of the fluorescent probe.

[1] = system: murine melanome cell line B16-F10; test: melanin synthesis, colorimetric assay, basal and after α-MSH; type: cell-based; conditions: basal situation, 30 μg/ml
Method: The modulating effect of unsaturated fatty hydroxy acid derivatives on melanogenesis was analysed. To do this, measurement of melanin synthesis by colorimetric assay was performed on a murine melanome cell line: line B16-F10.
The effect of products was investigated in a basal situation and after stimulation by α-MSH in order to determine depigmenting capacity.
Levels of extracellular and intracellular melanin were measured by spectrophotometry at a wavelength of 405 nm according to the protocol described by Anob et al., 1999. The amount of pigment was determined using a standard melanin range and analysis on Microwin software (Berthold Biotechnologies). A total protein assay was carried out for intracellular melanin samples by means of the BCA-Copper method at 540 nm. The standard range was made up using standard protein BSA (Bovine Serum Albumin).

Row | Compound | % inhibition (PAR-2 receptors; 10 μg/ml) [%] | % stimulation (PAR-2 receptors; 10 μg/ml) [%] | % inhibition (PAR-2 receptors; 30 μg/ml) [%] | % stimulation (PAR-2 receptors; 30 μg/ml) [%] | % inhibition (PAR-2 receptors; 100 μg/ml) [%] | % stimulation (PAR-2 receptors; 100 μg/ml) [%] | inhibition of melanin synthesis [1] [%] | % inhibition (PAR-2 receptors; 0.1 μg/ml) [%] | % stimulation (PAR-2 receptors; 0.1 μg/ml) [%] | % inhibition (PAR-2 receptors; 0.3 μg/ml) [%] | % stimulation (PAR-2 receptors; 0.3 μg/ml) [%] | % inhibition (PAR-2 receptors; 1 μg/ml) [%] | % stimulation (PAR-2 receptors; 1 μg/ml) [%] | % inhibition (PAR-2 receptors; 3 μg/ml) [%] | % stimulation (PAR-2 receptors; 3 μg/ml) [%]
1 | O=C(O)/C=C/CCCCCCCCCCCO [n=10, R=H, Rn=H, R1=H, 14-hydroxy-tetradec-2t-enoic acid] | −17 | 15.33 | −4 | 14.10 | 39 | 9.84 | 15 |  |  |  |  |  |  |  | 
2 | O=C(O)C(F)=CCCCCCCCCCCCCCCO [n=13, R=H, Rn=H, R1=F, 17-hydroxy-heptadec-2-fluoro-2-enoic acid] | 42 | 9.55 |  |  |  |  |  | −1 | 13.78 | 6 | 13.06 | 9 | 12.74 | 7 | 12.97
